Measured values: patent publication US12209087B2, “AKT1 modulators” (Alterome Therapeutics, Inc., priority 2022, dated 2025)

Target: T1, full length AKT E17K (Homo sapiens, UniProt P31749, E17K)
T1 construct: host or cells: HEK-293 (ATCC CRL-1573)
Experiment: NanoBRET Target Engagement (TE) Assay
Assay type: cell-based
Conditions: competitive displacement of tracer in cells, read-out: AKT1 E17K IC50
In short: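 Compound and tracer incubated 2 h before luminescence at donor 450 nm and acceptor 600 nm, with extracellular signal inhibited. EC50 by sigmoidal variable-slope regression.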

T1 sequence (P31749 whole entry E17K): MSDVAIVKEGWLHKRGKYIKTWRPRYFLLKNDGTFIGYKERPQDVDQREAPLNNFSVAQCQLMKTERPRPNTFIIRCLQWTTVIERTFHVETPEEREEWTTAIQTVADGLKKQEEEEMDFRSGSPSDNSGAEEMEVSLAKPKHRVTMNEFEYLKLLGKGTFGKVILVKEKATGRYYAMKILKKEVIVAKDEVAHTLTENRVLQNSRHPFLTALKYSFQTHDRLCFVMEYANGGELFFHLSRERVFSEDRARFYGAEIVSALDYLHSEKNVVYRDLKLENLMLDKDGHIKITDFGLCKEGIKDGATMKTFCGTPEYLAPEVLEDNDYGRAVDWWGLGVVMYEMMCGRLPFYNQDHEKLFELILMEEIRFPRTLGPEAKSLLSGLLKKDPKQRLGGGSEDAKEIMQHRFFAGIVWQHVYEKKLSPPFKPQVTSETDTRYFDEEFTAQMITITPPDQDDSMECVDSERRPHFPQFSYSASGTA

Compound | IC50
N#Cc1nccc(NC2CCN(Cc3ccc(-n4c(-c5cccnc5N)nc5ccc(-c6ccc(OCF)cn6)nc54)cc3)CC2)n1 [Example 580, 4-((1-(4-(2-(2-Aminopyridin-3-yl)-5-(5-(fluoromethoxy)pyridin-2-yl)-3H-imidazo[4,5-b]pyridin-3-yl)benzyl)piperidin-4-yl)amino)pyrimidine-2-carbonitrile] | < 15 nM
COc1cnc(-c2ccc3nc(-c4cccnc4N)n(-c4ccc(CN5CCC(Nc6ccnc(C#N)n6)CC5)cc4)c3n2)nc1 [Example 581, 4-((1-(4-(2-(2-Aminopyridin-3-yl)-5-(5-methoxypyrimidin-2-yl)-3H-imidazo[4,5-b]pyridin-3-yl)benzyl)piperidin-4-yl)amino)pyrimidine-2-carbonitrile] | 15 to 60 nM
Cc1cnc(-c2ccc3nc(-c4cccnc4N)n(-c4ccc(CN5CCC(Nc6ccnc(C#N)n6)CC5)cc4)c3n2)cn1 [Example 582, 4-((1-(4-(2-(2-Aminopyridin-3-yl)-5-(5-methylpyrazin-2-yl)-3H-imidazo[4,5-b]pyridin-3-yl)benzyl)piperidin-4-yl)amino)pyrimidine-2-carbonitrile] | < 15 nM
COc1cnc(-c2ccc3nc(-c4cccnc4N)n(-c4ccc(CN5CCC(Nc6ccnc(C#N)n6)CC5)cc4)c3n2)cn1 [Example 583, 4-((1-(4-(2-(2-Aminopyridin-3-yl)-5-(5-methoxypyrazin-2-yl)-3H-imidazo[4,5-b]pyridin-3-yl)benzyl)piperidin-4-yl)amino)pyrimidine-2-carbonitrile] | < 15 nM
CCOc1ccc(-c2ccc3nc(-c4cccnc4N)n(-c4ccc(CN5CCC(Nc6ccnc(C#N)n6)CC5)cc4)c3n2)cn1 [Example 584, 4-((1-(4-(2-(2-Aminopyridin-3-yl)-5-(6-ethoxypyridin-3-yl)-3H-imidazo[4,5-b]pyridin-3-yl)benzyl)piperidin-4-yl)amino)pyrimidine-2-carbonitrile] | < 15 nM
N#Cc1nccc(NC2CCN(Cc3ccc(-n4c(-c5cccnc5N)nc5ccc(-c6ccc(OC7CC7)cn6)nc54)cc3)CC2)n1 [Example 585, 4-((1-(4-(2-(2-Aminopyridin-3-yl)-5-(5-cyclopropoxypyridin-2-yl)-3H-imidazo[4,5-b]pyridin-3-yl)benzyl)piperidin-4-yl)amino)pyrimidine-2-carbonitrile] | < 15 nM
CC(C)Oc1ccc(-c2ccc3nc(-c4cccnc4N)n(-c4ccc(CN5CCC(Nc6ccnc(C#N)n6)CC5)cc4)c3n2)nc1 [Example 586, 4-((1-(4-(2-(2-Aminopyridin-3-yl)-5-(5-isopropoxypyridin-2-yl)-3H-imidazo[4,5-b]pyridin-3-yl)benzyl)piperidin-4-yl)amino)pyrimidine-2-carbonitrile] | < 15 nM
N#Cc1nccc(NC2CCN(Cc3ccc(-n4c(-c5cccnc5N)nc5ccc(-c6ccc(C7CC7)nc6)nc54)cc3)CC2)n1 [Example 587, 4-((1-(4-(2-(2-Aminopyridin-3-yl)-5-(6-cyclopropylpyridin-3-yl)-3H-imidazo[4,5-b]pyridin-3-yl)benzyl)piperidin-4-yl)amino)pyrimidine-2-carbonitrile] | < 15 nM
Cc1nncn1-c1ccc2nc(-c3cccnc3N)n(-c3ccc(CN4CCC(Nc5ccnc(C#N)n5)CC4)cc3)c2n1 [Example 588, 4-((1-(4-(2-(2-aminopyridin-3-yl)-5-(3-methyl-4H-1,2,4-triazol-4-yl)-3H-imidazo[4,5-b]pyridin-3-yl)benzyl)piperidin-4-yl)amino)pyrimidine-2-carbonitrile] | 15 to 60 nM
Cc1ncn(-c2ccc3nc(-c4cccnc4N)n(-c4ccc(CN5CCC(Nc6ccnc(C#N)n6)CC5)cc4)c3n2)n1 [Example 589, 4-((1-(4-(2-(2-aminopyridin-3-yl)-5-(3-methyl-1H-1,2,4-triazol-1-yl)-3H-imidazo[4,5-b]pyridin-3-yl)benzyl)piperidin-4-yl)amino)pyrimidine-2-carbonitrile] | 15 to 60 nM
N#Cc1nccc(NC2CCN(Cc3ccc(-n4c(-c5cccnc5N)nc5ccc(-n6cncn6)nc54)cc3)CC2)n1 [Example 590, 4-((1-(4-(2-(2-Aminopyridin-3-yl)-5-(1H-1,2,4-triazol-1-yl)-3H-imidazo[4,5-b]pyridin-3-yl)benzyl)piperidin-4-yl)amino)pyrimidine-2-carbonitrile] | < 15 nM
N#Cc1nccc(NC2CCN(Cc3ccc(-n4c(-c5cccnc5N)nc5ccc(-n6ccnn6)nc54)cc3)CC2)n1 [Example 591, 4-((1-(4-(2-(2-Aminopyridin-3-yl)-5-(1H-1,2,3-triazol-1-yl)-3H-imidazo[4,5-b]pyridin-3-yl)benzyl)piperidin-4-yl)amino)pyrimidine-2-carbonitrile] | < 15 nM
N#Cc1nccc(NC2CCN(Cc3ccc(-n4c(-c5cccnc5N)nc5ccc(-n6nccn6)nc54)cc3)CC2)n1 [Example 592, 4-((1-(4-(2-(2-Aminopyridin-3-yl)-5-(2H-1,2,3-triazol-2-yl)-3H-imidazo[4,5-b]pyridin-3-yl)benzyl)piperidin-4-yl)amino)pyrimidine-2-carbonitrile] | < 15 nM
Cc1cn(-c2ccc3nc(-c4cccnc4N)n(-c4ccc(CN5CCC(Nc6ccnc(C#N)n6)CC5)cc4)c3n2)nn1 [Example 593, 4-((1-(4-(2-(2-Aminopyridin-3-yl)-5-(4-methyl-1H-1,2,3-triazol-1-yl)-3H-imidazo[4,5-b]pyridin-3-yl)benzyl)piperidin-4-yl)amino)pyrimidine-2-carbonitrile] | < 15 nM
N#Cc1nccc(NC2CCN(Cc3ccc(-n4c(-c5cccnc5N)nc5ccc(-c6cocn6)nc54)cc3)CC2)n1 [Example 594, 4-((1-(4-(2-(2-Aminopyridin-3-yl)-5-(oxazol-4-yl)-3H-imidazo[4,5-b]pyridin-3-yl)benzyl)piperidin-4-yl)amino)pyrimidine-2-carbonitrile] | < 15 nM
N#Cc1nccc(NC2CCN(Cc3ccc(-n4c(-c5cccnc5N)nc5ccc(-c6cnccc6F)nc54)cc3)CC2)n1 [Example 595, 4-((1-(4-(2-(2-Aminopyridin-3-yl)-5-(4-fluoropyridin-3-yl)-3H-imidazo[4,5-b]pyridin-3-yl)benzyl)piperidin-4-yl)amino)pyrimidine-2-carbonitrile] | < 15 nM
Cc1ccnc(-c2ccc3nc(-c4cccnc4N)n(-c4ccc(CN5CCC(Nc6ccnc(C#N)n6)CC5)cc4)c3n2)c1 [Example 596, 4-((1-(4-(2-(2-Aminopyridin-3-yl)-5-(4-methylpyridin-2-yl)-3H-imidazo[4,5-b]pyridin-3-yl)benzyl)piperidin-4-yl)amino)pyrimidine-2-carbonitrile] | < 15 nM
[2H]c1nc(OC([2H])([2H])[2H])ccc1-c1ccc2nc(-c3cccnc3N)n(-c3ccc(CN4CCC(Nc5ccnc(C#N)n5)CC4)cc3)c2n1 [Example 597, 4-((1-(4-(2-(2-aminopyridin-3-yl)-5-(6-(methoxy-d3)pyridin-3-yl-2-d)-3H-imidazo[4,5-b]pyridin-3-yl)benzyl)piperidin-4-yl)amino)pyrimidine-2-carbonitrile] | < 15 nM
[2H]C([2H])([2H])Oc1ccc(-c2ccc3nc(-c4cccnc4N)n(-c4ccc(CN5CCC(Nc6ccnc(C#N)n6)CC5)cc4)c3n2)cn1 [Example 598, 4-((1-(4-(2-(2-aminopyridin-3-yl)-5-(6-(methoxy-d3)pyridin-3-yl)-3H-imidazo[4,5-b]pyridin-3-yl)benzyl)piperidin-4-yl)amino)pyrimidine-2-carbonitrile] | < 15 nM
N#Cc1nccc(NC2CCN(Cc3ccc(-n4c(-c5cccnc5N)nc5cc(C#N)c(O)nc54)cc3)CC2)n1 [Example 599, 2-(2-Aminopyridin-3-yl)-3-(4-((4-((2-cyanopyrimidin-4-yl)amino)piperidin-1-yl)methyl)phenyl)-5-hydroxy-3H-imidazo[4,5-b]pyridine-6-carbonitrile] | 600 to 10000 nM
N#Cc1nccc(NC2CCN(Cc3ccc(-n4c(-c5c(F)ccnc5N)nc5ccc(-c6ccc(F)cn6)nc54)cc3)CC2)n1 [Example 600, 4-((1-(4-(2-(2-Amino-4-fluoropyridin-3-yl)-5-(5-fluoropyridin-2-yl)-3H-imidazo[4,5-b]pyridin-3-yl)benzyl)piperidin-4-yl)amino)pyrimidine-2-carbonitrile] | 15 to 60 nM
N#Cc1nccc(NC2CCN(Cc3ccc(-n4c(-c5cncnc5)nc5ccc(-c6ccc(F)cn6)nc54)cc3)CC2)n1 [Example 601, 4-((1-(4-(5-(5-Fluoropyridin-2-yl)-2-(pyrimidin-5-yl)-3H-imidazo[4,5-b]pyridin-3-yl)benzyl)piperidin-4-yl)amino)pyrimidine-2-carbonitrile] | 600 to 10000 nM
N#Cc1nccc(NC2CCN(Cc3ccc(-n4c(-c5cccnc5N)nc5ccc(-c6ccc(F)cn6)cc54)cc3)CC2)n1 [Example 602, 4-((1-(4-(2-(2-Aminopyridin-3-yl)-6-(5-fluoropyridin-2-yl)-1H-benzo[d]imidazol-1-yl)benzyl)piperidin-4-yl)amino)pyrimidine-2-carbonitrile] | < 15 nM
N#Cc1nccc(NC2CCN(Cc3ccc(-n4c(-c5cccnc5N)nc5ccc(-c6ncc(F)cn6)nc54)cc3)CC2)n1 [Example 603, 4-((1-(4-(2-(2-Aminopyridin-3-yl)-5-(5-fluoropyrimidin-2-yl)-3H-imidazo[4,5-b]pyridin-3-yl)benzyl)piperidin-4-yl)amino)pyrimidine-2-carbonitrile] | < 15 nM
Cc1cnc(-c2ccc3nc(-c4cccnc4N)n(-c4ccc(CN5CCC(Nc6ccnc(C#N)n6)CC5)cc4)c3n2)nc1 [Example 604, 4-((1-(4-(2-(2-Aminopyridin-3-yl)-5-(5-methylpyrimidin-2-yl)-3H-imidazo[4,5-b]pyridin-3-yl)benzyl)piperidin-4-yl)amino)pyrimidine-2-carbonitrile] | < 15 nM
N#Cc1nccc(NC2CCN(Cc3ccc(-n4c(-c5cccnc5N)nc5ccc(-c6cnc(F)cn6)nc54)cc3)CC2)n1 [Example 605, 4-((1-(4-(2-(2-Aminopyridin-3-yl)-5-(5-fluoropyrazin-2-yl)-3H-imidazo[4,5-b]pyridin-3-yl)benzyl)piperidin-4-yl)amino)pyrimidine-2-carbonitrile] | < 15 nM
